# Experimental data as given in patent US10422803B2, “Light-activated cation channel and uses thereof” (The Board of Trustees of the Leland Stanford Junior …, priority 2005, dated 2019).
# Test system: hippocampal neurons
# Test: Light-driven synaptic transmission from ChR2-expressing presynaptic neurons
# Format: cell-based, rat
# Procedure: Spiking was measured while injecting current to keep the voltage of the cell at approximately −65 mV (holding current ranging from 0 pA to 200 pA). For the synaptic transmission experiments, we patched nonfluorescent neurons near ChR2-expressing neurons, immersed in Tyrode solution containing either 20 μM gabazine to isolate just the excitatory postsynaptic response, or in 5 μM NBQX to isolate just the inhibitory postsynaptic response. To confirm whether the evoked potentials were indeed synaptically driven, after synaptic stimulation we blocked all postsynaptic receptors with solution containing both 20 μM gabazine and 5 μM NBQX, and rephotostimulated.
SMILES,"effect on light-driven inhibitory synaptic responses (GABAergic transmission blocker, FIG. 4(d))","effect on light-driven excitatory synaptic responses (glutamatergic blocker, FIG. 4(c))"
COc1ccc(-c2ccc(=N)n(CCCC(=O)O)n2)cc1 [gabazine],abolishes these synaptic responses,–
NS(=O)(=O)c1cccc2c1c([N+](=O)[O-])cc1nc(O)c(O)nc12 [NBQX],–,abolishes these synaptic responses
